In PMC10266789 (The Journal of Clinical Investigation, 2023):
Like-named read-outs stand apart in the source and are kept apart here.

Legend:
[1] = system: SARS-CoV-2 (strain USA-WA1/2020); assay: microbe, parasite or virus in culture; conditions: Severe acute respiratory syndrome coronavirus 2, Calu-3, in Homo sapiens, read-out: IC50, SARS-CoV-2
[2] = Mouse pharmacokinetics, plasma; format: in vivo; conditions: single 50 mg/kg p.o., female BALB/c mice
Protocol: The pharmacokinetics study used fed female BALB/c mice (22 g, n = 3 per time point). Blood samples (~30 μL via saphenous vein puncture) were taken at 0.25, 0.5, 1, 2, 4, 8, and 24 hours. […] The lower limit of quantification was 10 ng/mL. An aliquot of 10 μL plasma sample was mixed with 10 μL terfenadine solvent plus 2 μL methanol. An additional 200 μL of terfenadine solvent was added, and the resulting mixture was vortexed for 1 minute and centrifuged at 1,500g for 15 minutes. The supernatant was diluted 10× with methanol/water (1:1 vol/vol with 0.1% formic acid), and 2 μL aliquots were analyzed using a QTRAP 4000 LC-MS/MS System (Sciex) with a C18 column (Kinetex). Pharmacokinetic parameters were determined with the noncompartmental analysis tool in WinNonlin (Certara).
Plasma samples from groups
Mean +/- SD is presented.

[3] = system: HCMV TB40/E-mCherry-UL99eGFP; assay: HCMV delayed treatment protocol, infected cell area in MRC-5; conditions: for IC50: Human betaherpesvirus 5, MRC5, 120 h, 5 days of treatment
[4] = Host cell cytotoxicity, PHH; conditions: human
[5] = system: Epstein-Barr virus (EBV; strain Akata); assay: microbe, parasite or virus in culture; conditions: human gammaherpesvirus 4, Akata, read-out: IC50, Epstein-Barr
HCMV TB40/E [6] = assay: Human lung-only mouse model of HCMV infection; format: in vivo, lung-only mice (NSG); conditions: day 17; TCID50; FLS-359 50 mg/kg p.o. b.i.d.; ganciclovir 100 mg/kg i.p. daily; P < 0.04
[7] = system: HCMV TB40/E-mCherry-UL99eGFP; assay: Infectivity of HCMV progeny particles (DNase I-resistant viral DNA vs TCID50); format: cell-based, human cytomegalovirus
[8] = system: c-Myc in MDA-MB-231 breast adenocarcinoma cells; assay: Western blot of c-Myc in MDA-MB-231 cells; format: cell-based, human; conditions: 72 hours
Protocol: Supplemental Figure 1. […] (A) HepG2 cells were treated with FLS- […]
determined by western blot. Total a-tubulin was monitored as a control. (B) MDA-MB-231 cells or (C) MRC-5 fibroblasts were treated with drug for 72h and c-Myc was monitored by western blot with b-actin as a control. Western blots are representative of three independent experiments.
(§1) (1 picture or pasted object on this page, not shown here)

[9] = Host cell cytotoxicity, Akata; format: cell-based; conditions: Akata cells (Burkitt lymphoma cell line); human Akata; Epstein-Barr assay
Protocol: The Akata Burkitt lymphoma cell line is permissive for EBV lytic reactivation through activation of the B cell receptor ([52]). As expected, 24 hours after receptor engagement with anti-IgG, 30% of Akata cells induced surface expression of the late EBV gene gp350, which serves as a proxy for cells that are replicating viral DNA and forming new virions (Figure 3A).

[10] = Residual drug levels in MRC-5 cells and supernatant after washout, mass spectrometry; format: in vitro ADME, human
Protocol: Supplemental Figure 8. […] (A) Uninfected cells
After 24h, supernatant was collected, monolayers were washed 3x to remove drug and cells were replenished with drug-free media.
Supernatants and cells were then assayed for residual drug levels at 2, 24 or 72h post-release. (B-C) Supernatant and cell-associated drug concentrations were determined by mass spectrometry. (D) […]
monolayer of MRC-5 cells. Sampling of the supernatant was conducted after a 24h incubation at 37°C, followed by 3X washes with PBS, collection of the final wash, and replenishment of drug-free medium to the dishes. Supernatant samples were then collected at 24 and 72h post drug-removal. […]
concentrations as determined by mass spectrometry. Mean +/- SD is shown (n=3).
as §1

HCMV TB40/E [11] = assay: Mouse gelfoam-fibroblast model of HCMV infection; format: in vivo, CIEA NOG mice; conditions: day 11; TCID50; FLS-359 50 mg/kg p.o. b.i.d.; valganciclovir 50 mg/kg p.o. daily; P < 0.03
HCMV virions = system: HCMV virions; set-up: species or system human cytomegalovirus; conditions: 1 or 5 μM; 96 hours at 37°C
[12] = Host cell cytotoxicity, HFF; conditions: human, HFF cells
[13] = Host cell cytotoxicity, Calu3; format: cell-based; conditions: Calu3 cells; human Calu3; SARS-CoV-2 assay
[14] = system: HCMV TB40/E-mCherry-UL99eGFP; conditions: Human betaherpesvirus 5, read-out: HCMV virus yield IC50
[15] = system: HCMV TB40/E-mCherry-UL99eGFP; assay: HCMV virus yield at 72 hpi by TCID50 (3 IU/cell); format: cell-based, human cytomegalovirus; conditions: Figure 8C
[16] = 72 hours after drug removal, treated 24 h with 5 µM

## Cc1cn(-c2ccc3c(c2)CN(c2ncc(Cc4ccc(-n5cccn5)cc4)s2)CC3)c(C)n1 [FLS-359, 7-(2,4-dimethyl-1H-imidazol-1-yl)-2-(5-{[4-(1H-pyrazol-1-yl)phenyl]methyl}-1,3-thiazol-2-yl)-1,2,3,4-tetrahydroisoquinoline]
[1]
  IC50: 300 nM
[2]; female, BALB/c, mouse, in vivo, po, 50 mg/kg, read-out: plasma half-life (T1/2) (converted)
  half-life: 5.8 ± 1.4 h
[2]; female, BALB/c, mouse, plasma, po, 50 mg/kg
  Cmax: 89.3 ± 11 µM
[2]; mouse, plasma, po
  AUC(0-inf): 713 µM·h
  Tmax: 2 h
[2]; plasma, 50 mg/kg
  Cmax: 89 µM
[3]; read-out: IC50, infected cell area, drug added at 0 hpi, 0.1 IU/cell
  IC50: 900 nM
[3]; read-out: IC50, infected cell area, drug added at 24 hpi
  IC50: 600 nM
[3]; read-out: IC50, infected cell area, drug added at 48 hpi
  IC50: 800 nM
[3]; read-out: IC50, infected cell area, drug added at 72 hpi
  IC50: 900 nM
[3]; read-out: IC50, infected cell area, drug added at 96 hpi
  IC50: 900 nM
[3]; drug added at 0 hpi
  Maximum Fold-Reduction in infected cell area: 11.6
[3]; drug added at 24 hpi
  Maximum Fold-Reduction in infected cell area: 33.4
[3]; drug added at 48 hpi
  Maximum Fold-Reduction in infected cell area: 21.2
[3]; drug added at 72 hpi
  Maximum Fold-Reduction in infected cell area: 17.6
[3]; drug added at 96 hpi
  Maximum Fold-Reduction in infected cell area: 21.8
[4]
  CC50: > 10000 nM
[5]
  IC50: 3800 nM
HCMV TB40/E [6]
  production of infectious HCMV progeny in human lung implants: significantly reduced the production of infectious HCMV progeny
[7]; 1.0 μM, 2 hpi to 96 hpi, 1 IU/cell
  reduction of particle/infectious unit ratio (infectivity): 14.5 factor
[7]; 2.5 or 5.0 μM, 2 hpi to 96 hpi
  reduced infectivity: more than 1,690 fold
[7]; Figure 8E
  reduction in extracellular virus particles: approximately 70 fold
[7]; Figure 8E, discussion
  reduction of viral infectivity: more than 1,600 fold
[8]
  c-Myc protein level: dramatically reduced
[9]
  CC50: > 100000 nM
[10]; 5 µM in medium, no cells
  removal of drug from culture dishes without cells: efficiently removed by washing
[10]; [16]
  drug level in cells: ~ 5 μM
  drug level in supernatant: ~ 0.4 μM
HCMV TB40/E [11]
  virus production in gelfoam implants: significantly reduced virus production
HCMV virions
  effect of incubating virus stock with drug on infectivity: no significant effect on infectivity
[12]
  CC50: 41600 nM
[13]
  CC50: 15800 nM
[14]
  IC50: 560 nM
[15]; 72 hpi, TCID50
  production of infectious virus: reduced the production of infectious virus to below the limit of quantification
[15]; 72 hours
  reduction in infectious virus: more than 1,000 fold
